Each molecule was assayed on VSV-g pseudotyped HIV vector that expresses luciferase (PHIV) (assay: microbe, parasite or virus in culture). Conditions: Human immunodeficiency virus 1, HEK-293T, 48 h, read-out: PHIV IC50.
Format: cell-based

How did the IC50 turn out when `C[C@H]1CCN(Cc2nccs2)[C@@H]2Cn3cc(C(=O)NCc4ccc(F)cc4F)c(=O)c(O)c3C(=O)N12` [Example Z-34, (4S,12aS)—N-[(2,4-Difluorophenyl)methyl]-7-hydroxy-4-methyl-6,8-dioxo-1-(1,3-thiazol-2-ylmethyl)-1,2,3,4,6,8,12,12a-octahydropyrido[1′,2′:4,5]pyrazino[1,2-a]pyrimidine-9-carboxamide] was run?
Its IC50 is less than 10 nM.

With `O=C(NCc1ccc(F)cc1F)c1cn2c(c(O)c1=O)C(=O)N1[C@H](C2)N[C@H]2CCCC[C@@H]21` [Example Z-39, (6aR,7aS,11aS)—N-[(2,4-Difluorophenyl)methyl]-1-hydroxy-2,13-dioxo-2,6a,7,7a,8,9,10,11,11a,13-decahydro-6H-pyrido[1′,2′:4,5]pyrazino[1,2-a]benzimidazole-3-carboxamide] as the molecule, how does the IC50 read?
Its IC50 is less than 10 nM.

`O=C(NCc1ccc(F)cc1F)c1cn2c(c(O)c1=O)C(=O)N1[C@@H](C2)N[C@H]2CCCC[C@@H]21` [Example Z-40, (6aS,7S,11aS)—N-[(2,4-Difluorophenyl)methyl]-1-hydroxy-2,13-dioxo-2,6a,7,7a,8,9,10,11,11a,13-decahydro-6H-pyrido[1′,2′:4,5]pyrazino[1,2-a]benzimidazole-3-carboxamide] was tested. Which IC50 did it give?
The IC50 was less than 10 nM.

`O=C(NCc1ccc(F)cc1F)c1cn2c(c(O)c1=O)C(=O)N1C[C@@H]3CCCCN3[C@@H]1C2` [Example Z-41, (5aS,14aS)—N-[(2,4-Difluorophenyl)methyl]-11-hydroxy-10,12-dioxo-1,2,3,4,5a,6,10,12,14,14a-decahydropyrido[1,2-a]pyrido[1′,2′:4,5]imidazo[1,2-d]pyrazine-9-carboxamide] was tested. Which IC50 did it give?
The IC50 was less than 10 nM.

For `O=C(NCc1ccc(F)cc1F)c1cn2c(c(O)c1=O)C(=O)N1CC[C@H]3CCCCN3[C@H]1C2` [Example Z-42, (4aR,14aR)—N-[(2,4-Difluorophenyl)methyl]-9-hydroxy-8,10-dioxo-2,3,4,4a,5,6,8,10,14,14a-decahydro-1H-pyrido[1,2-c]pyrido[1′,2′:4,5]pyrazino[1,2-a]pyrimidine-11-carboxamide], which IC50 is on record?
Its IC50 is less than 10 nM.

Which IC50 does the source give for `CC(C)CCN1CC[C@@H](C)N2C(=O)c3c(O)c(=O)c(C(=O)NCc4ccc(F)cc4F)cn3C[C@H]12` [Example Z-43] here?
Its IC50 is less than 10 nM.

How did the IC50 turn out when `CC(C)N1CC[C@H](C)N2C(=O)c3c(O)c(=O)c(C(=O)NCc4ccc(F)cc4F)cn3C[C@@H]12` [Example Z-44, (4S,12aS)—N-[(2,4-Difluorophenyl)methyl]-7-hydroxy-4-methyl-1-(1-methylethyl)-6,8-dioxo-1,2,3,4,6,8,12,12a-octahydropyrido[1′,2′:4,5]pyrazino[1,2-a]pyrimidine-9-carboxamide] was run?
Its IC50 is less than 10 nM.

How did the IC50 turn out when `CC(C)CCN1CC[C@H](C)N2C(=O)c3c(O)c(=O)c(C(=O)NCc4ccc(F)cc4F)cn3C[C@@H]12` [Example Z-45, (4S,12aS)—N-[(2,4-Difluorophenyl)methyl]-7-hydroxy-4-methyl-1-(3-methylbutyl)-6,8-dioxo-1,2,3,4,6,8,12,12a-octahydropyrido[1′,2′:4,5]pyrazino[1,2-a]pyrimidine-9-carboxamide] was run?
Its IC50 is less than 10 nM.

`C[C@H]1CCN(Cc2cccnc2)[C@@H]2Cn3cc(C(=O)NCc4ccc(F)cc4F)c(=O)c(O)c3C(=O)N12` [Example Z-46, (4S,12aS)—N-[(2,4-Difluorophenyl)methyl]-7-hydroxy-4-methyl-6,8-dioxo-1-(3-pyridinylmethyl)-1,2,3,4,6,8,12,12a-octahydropyrido[1′,2′:4,5]pyrazino[1,2-a]-pyrimidine-9-carboxamide] was tested. Which IC50 did it give?
Its IC50 is less than 10 nM.

With `C[C@H]1CCN(C2CC2)[C@@H]2Cn3cc(C(=O)NCc4ccc(F)cc4F)c(=O)c(O)c3C(=O)N12` [Example Z-47, (4S,12aS)-1-Cyclopropyl-N-[(2,4-difluorophenyl)methyl]-7-hydroxy-4-methyl-6,8-dioxo-1,2,3,4,6,8,12,12a-octahydropyrido[1′,2′:4,5]pyrazino[1,2-a]pyrimidine-9-carboxamide] as the molecule, how does the IC50 read?
Its IC50 is less than 10 nM.

For `COCCN1CC[C@H](C)N2C(=O)c3c(O)c(=O)c(C(=O)NCc4ccc(F)cc4F)cn3C[C@@H]12` [Example Z-48, (4S,12aS)—N-[(2,4-Difluorophenyl)methyl]-7-hydroxy-4-methyl-1-[2-(methyloxy)ethyl]-6,8-dioxo-1,2,3,4,6,8,12,12a-octahydropyrido[1′,2′:4,5]pyrazino[1,2-a]pyrimidine-9-carboxamide], which IC50 is on record?
Its IC50 is less than 10 nM.

How did the IC50 turn out when `CC[C@@H]1CO[C@H]2Cn3cc(C(=O)NCc4ccc(F)cc4F)c(=O)c(O)c3C(=O)N12` [Example Z-50, (3R,11aS)—N-[(2,4-Difluorophenyl)methyl]-3-ethyl-6-hydroxy-5,7-dioxo-2,3,5,7,11,11a-hexahydro[1,3]oxazolo[3,2-a]pyrido[1,2-d]pyrazine-8-carboxamide] was run?
Its IC50 is less than 10 nM.

For `C[C@H]1CCN(C2CCC2)[C@@H]2Cn3cc(C(=O)NCc4ccc(F)cc4F)c(=O)c(O)c3C(=O)N12` [Example Z-59, (4S,12aS)-1-Cyclobutyl-N-[(2,4-difluorophenyl)methyl]-7-hydroxy-4-methyl-6,8-dioxo-1,2,3,4,6,8,12,12a-octahydropyrido[1′,2′:4,5]pyrazino[1,2-a]pyrimidine-9-carboxamide], which IC50 is on record?
Its IC50 is less than 10 nM.

`C[C@H]1CCN(C2CCSCC2)[C@@H]2Cn3cc(C(=O)NCc4ccc(F)cc4F)c(=O)c(O)c3C(=O)N12` [Example Z-60, (4S,12aS)—N-[(2,4-Difluorophenyl)methyl]-7-hydroxy-4-methyl-6,8-dioxo-1-(tetrahydro-2H-thiopyran-4-yl)-1,2,3,4,6,8,12,12a-octahydropyrido[1′,2′:4,5]pyrazino[1,2-a]pyrimidine-9-carboxamide] was tested. Which IC50 did it give?
Its IC50 is less than 10 nM.

Each molecule was assayed against HIV integrase (Human immunodeficiency virus type 1 group M subtype B (isolate HXB2) (HIV-1), UniProt P04585) (assay: HIV integrase inhibitory activity assay (immunoplate strand transfer, OD405)). Conditions: not given.
Format: biochemical
Experimental: The HIV integrase inhibitory activity was investigated based on the following assay method.
(1) Preparation of DNA Solution
By the same method as that described in Experimental Example 1 of WO 2004/024693, a substrate DNA solution (2 pmol/μl) and a target DNA solution (5 pmol/μl) were prepared. […] Each sequence of a substrate DNA and a target DNA is as described in the same Experimental Example.
(2) Measurement of Inhibition Rate (IC50 Value)
Streptavidin (manufactured by Vector Laboratories) was dissolved in a 0.1M carbonate buffer solution (composition: […] Na2CO3, 10 mM NaHCO3) to a concentration of 40 μg/ml, Each 50 μl of this solution was added to a well of an immunoplate (manufactured by NUNC), this is allowed to stand at 4° C. overnight to adsorb. Then, each well was washed with a phosphate buffer (composition: 13.7 mM NaCl, 0.27 mM KCl, 0.43 mM Na2HPO4, 0.14 mM KH2PO4) two times, and 300 μl of a phosphate buffer containing 1% skim milk to block it for 30 minutes. Further, each well was washed with a phosphate buffer two times, 50 μl of a substrate DNA solution (2 pmol/μl) was added to adsorb at room temperature for 30 minutes while shaking, and this was washed with a phosphate buffer two times and, then, distilled water once.
Then, to each well prepared as described above were added 12 μl of a buffer (composition: 150 mM MOPS (pH7.2), 75 mM MnCl2, 50 mM 2-mercaptoethanol, 25% glycerol, 500 μg/ml bovine serum albumin-fraction V), and 51 μl of a reaction solution prepared from 39 μl of distilled water. Then, 9 μl of an integrase solution (30 pmol) was added, and the mixture was mixed well. To a well as a negative control (NC) was added 9 μl of a diluting solution (composition: 20 mM MOPS (pH7.2), 400 mM potassium glutamate, 1 mM EDTA, 0.1% NP-40, 20% glycerol, 1 mM DTT, 4 M urea), and this was mixed well using a plate mixer. […]
C abs.: absorbance of well of compound
NC abs.: absorbance of NC
PC abs.: absorbance of PC

Which “Integrase inhibitory activity (IC50, ng/ml)” value does the source give for `O=C(NCc1ccc(F)cc1)c1cn2c(c(O)c1=O)C(=O)N1CCOC1C2` (centres unmarked) [Example C-2, 5-Hydroxy-4,6-dioxo-2,3,4,6,9,9a-hexahydro-1-oxa-8a,8a-diaza-cyclopenta[b]naphthalene-7 carboxylic acid 4-fluorobenzylamide] here?
The value was 3.3 ng/mL.

Same assay, conditions: read-out: Integrase inhibitory activity (IC50, ng/ml) (converted)

For `CC(C)CN1CCCN2C(=O)c3c(O)c(=O)c(C(=O)NCc4ccc(F)cc4)cn3CC12` (centres unmarked) [Example F-2, 5-Hydroxy-1-isobutyl-6,10-dioxo-1,2,3,4,6,9,9a,10-octahydro-1,4a,8a-triazaanthracene-7-carboxylic acid 4-fluorobenzylamide], which IC50 is on record?
The IC50 was 8.59 nM.

For `CC(=O)N1CCCN2C(=O)c3c(O)c(=O)c(C(=O)NCc4ccc(F)cc4)cn3CC12` (centres unmarked) [Example H-2, 1-Acetyl-5-hydroxy-6,10-dioxo-1,2,3,4,6,9,9a,10-octahydro-1,4a,8a-triaza-anthracene-7-carboxylic acid 4-fluoro-benzylamide], which IC50 is on record?
Its IC50 is 7.47 nM.

Source: patent publication US11267823B2, “Substituted 1,2,3,3a,4,5,7,9,13,13a-decahydropyrido[1′,2′:4,5]pyrazino[1,2-a]pyrrolo[1,2-c]pyrimidines having HIV integrase inhibitory activity” (Shionogi & Co., Ltd., priority 2005, dated 2022)
